This experiment has as its system HIV-IIIb. Kind of experiment: Test A: Antiviral Assays in MT4 Cells. It counts as cell-based. The note with it: MT-4 cells infected with HIV-IIIb (0.004 m.o.i.), 5 days of incubation, CellTiter-Glo chemiluminescence readout, read-out: EC50. The method, boiled down:
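MT-4 cells pre-infected with HIV-IIIb (0.004 m.o.i.) at 37 °C, then plated with 3-fold serially diluted compound (10 concentrations, quadruplicate, RPMI 1640/10% FBS). After 5 days at 37 °C, cell viability read by CellTiter-Glo chemiluminescence; mock-infected cells run in parallel.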
For orientation: Cellular ATP, detected with luciferase, serves as a proxy for viable cell number.

The mark [1] stands for this setting: Human immunodeficiency virus 1, IIIB, MT4, 120 h.

Read-outs that look alike come from different tables or passages of the source.

Usually EC50 stands for the midpoint of the concentration-response curve. Consider `Cc1c(C(OC(C)(C)C)C(=O)O)c(-c2ccc(Cl)cc2)c2ccccc2c1C#CCN(C)C` (centres unmarked) [Compound 131, 2-tert-Butoxy-2-(1-(4-chlorophenyl)-4-(3-(dimethylamino)prop-1-ynyl)-3-methylnaphthalen-2-yl)acetic acid], for which the EC50 under setting [1] came out at 0.062 µM.
Same read-out and setting: the same measure for `Cc1c(C(OC(C)(C)C)C(=O)O)c(-c2ccc(Cl)cc2)c2ccccc2c1CCCN(C)C` (centres unmarked) [Compound 132, 2-tert-Butoxy-2-(1-(4-chlorophenyl)-4-(3-(dimethylamino)propyl)-3-methylnaphthalen-2-yl)acetic acid]: 0.118 µM; for `Cc1c(C(OC(C)(C)C)C(=O)O)c(-c2ccc(Cl)cc2)c2ccccc2c1CN(C)C` (centres unmarked) [Compound 133, 2-tert-Butoxy-2-(1-(4-chlorophenyl)-4-((dimethylamino)methyl)-3-methylnaphthalen-2-yl)acetic acid]: 0.123 µM.
Take `Cc1c(C(OC(C)(C)C)C(=O)O)c(-c2ccc(Cl)cc2)c2ccccc2c1CN1CCOCC1` (centres unmarked) [Compound 134, 2-tert-Butoxy-2-(1-(4-chlorophenyl)-3-methyl-4-(morpholinomethyl)naphthalen-2-yl)acetic acid]: the EC50 under setting [1] worked out at 0.15 µM.
Same read-out and setting: the same measure for `Cc1c(C(OC(C)(C)C)C(=O)O)c(-c2ccc(Cl)cc2)c2ccccc2c1CO` (centres unmarked) [Compound 135, 2-tert-Butoxy-2-(1-(4-chlorophenyl)-4-(hydroxymethyl)-3-methylnaphthalen-2-yl)acetic acid]: 0.045 µM.
Still for that read-out and setting: the figure for `Cc1c(C(OC(C)(C)C)C(=O)O)c(-c2ccc(Cl)cc2)c2ccccc2c1-c1ccccc1` (centres unmarked) [Compound 136, 2-tert-Butoxy-2-(1-(4-chlorophenyl)-3-methyl-4-phenylnaphthalen-2-yl)acetic acid] is 0.34 µM; for `Cc1c(C(OC(C)(C)C)C(=O)O)c(-c2ccc(Cl)cc2)c2ccccc2c1-c1ccc(N(C)C)nc1` (centres unmarked) [Compound 137, 2-tert-Butoxy-2-(1-(4-chlorophenyl)-4-(6-(dimethylamino)pyridin-3-yl)-3-methylnaphthalen-2-yl)acetic acid] it is 0.13 µM; for `Cc1c(C(OC(C)(C)C)C(=O)O)c(-c2ccc(Cl)cc2)c2ccccc2c1-c1cccnc1` (centres unmarked) [Compound 138, 2-tert-butoxy-2-(1-(4-chlorophenyl)-3-methyl-4-(pyridin-3-yl)naphthalen-2-yl)acetic acid] it is 0.04 µM.
The same measure, in the same setting: the same measure for `Cc1c(C(OC(C)(C)C)C(=O)O)c(-c2ccc(Cl)cc2)c2ccccc2c1-c1cncnc1` (centres unmarked) [Compound 139, 2-tert-Butoxy-2-(1-(4-chlorophenyl)-3-methyl-4-(pyrimidin-5-yl)naphthalen-2-yl)acetic acid]: 0.01 µM; for `Cc1c(C(OC(C)(C)C)C(=O)O)c(-c2ccc(Cl)cc2)c2ccccc2c1-c1ccc(Cl)cc1` (centres unmarked) [Compound 140, 2-(1,4-Bis(4-chlorophenyl)-3-methylnaphthalen-2-yl)-2-tert-butoxyacetic acid]: 1.6 µM.
`Cc1c(C(OC(C)(C)C)C(=O)O)c(-c2ccc(Cl)cc2)c2ccccc2c1-c1ccc(N)nc1` (centres unmarked) [Compound 143, 2-(4-(6-Aminopyridin-3-yl)-1-(4-chlorophenyl)-3-methylnaphthalen-2-yl)-2-tert-butoxyacetic acid]: the EC50 under setting [1] turned out to be 0.056 µM.
As for `Cc1c(C(OC(C)(C)C)C(=O)O)c(-c2ccc(Cl)cc2)c2ccccc2c1-c1ccc(=O)[nH]c1` (centres unmarked) [Compound 144, 2-tert-Butoxy-2-(1-(4-chlorophenyl)-3-methyl-4-(6-oxo-1,6-dihydropyridin-3-yl)naphthalen-2-yl)acetic acid], under setting [1], the EC50 worked out at 1.3 µM.
Turning to `Cc1c(C(OC(C)(C)C)C(=O)O)c(-c2ccc(Cl)cc2)c2ccccc2c1-c1cnc(N)nc1` (centres unmarked) [Compound 145, 2-(4-(2-Aminopyrimidin-5-yl)-1-(4-chlorophenyl)-3-methylnaphthalen-2-yl)-2-tert-butoxyacetic acid], the EC50 under setting [1] amounted to 0.05 µM.
As for `Cc1c(C(OC(C)(C)C)C(=O)O)c(-c2ccc(Cl)cc2)c2ccccc2c1-c1cnc(=O)[nH]c1` (centres unmarked) [Compound 146, 2-tert-Butoxy-2-(1-(4-chlorophenyl)-3-methyl-4-(2-oxo-1,2-dihydropyrimidin-5-yl)naphthalen-2-yl)acetic acid], the EC50 under setting [1] was 10 µM.
The same measure, in the same setting: the same measure for `Cc1c(C(OC(C)(C)C)C(=O)O)c(-c2ccc(Cl)cc2)c2ccccc2c1C#N` (centres unmarked) [Compound 147, 2-tert-Butoxy-2-(1-(4-chlorophenyl)-4-cyano-3-methylnaphthalen-2-yl)acetic acid]: 1.1 µM.
Same read-out and setting: the figure for `Cc1cc2ccc(Cl)cc2c(-c2ccc(Cl)cc2)c1C(OC(C)(C)C)C(=O)O` (centres unmarked) [Compound 149, 2-tert-Butoxy-2-(7-chloro-1-(4-chlorophenyl)-3-methylnaphthalen-2-yl)acetic acid] is 0.2 µM; for `Cc1c([C@@H](OC(C)(C)C)C(=O)O)c(-c2ccc(Cl)cc2)c2ccccc2c1Br` [Compound 150A, (R)-2-(4-Bromo-1-(4-chlorophenyl)-3-methylnaphthalen-2-yl)-2-tert-butoxyacetic acid] it is 29.2 µM; for `Cc1c([C@H](OC(C)(C)C)C(=O)O)c(-c2ccc(Cl)cc2)c2ccccc2c1Br` [Compound 150B, (S)-2-(4-bromo-1-(4-chlorophenyl)-3-methylnaphthalen-2-yl)-2-tert-butoxyacetic acid] it is 0.26 µM.
`Cc1cc2ccccc2c(C2=CC(C)(C)CCC2=O)c1[C@H](OC(C)(C)C)C(=O)O` [Compound 157]: the EC50 was found to be 10 µM.
Same read-out and setting: the same measure for `Cc1cc2ccccc2c(-c2cc(F)cc3cccnc23)c1[C@H](OC(C)(C)C)C(=O)O` [Compound 158]: 35 µM; for `Cc1cc2ccccc2c(-c2cc(F)cc3cccnc23)c1[C@H](OC(C)(C)C)C(=O)O` [Compound 159]: 1.3 µM.
Same read-out and setting: the same measure for `Cc1cc2ccccc2c(-c2ccc(F)c3cccnc23)c1[C@H](OC(C)(C)C)C(=O)O` [Compound 160]: 36 µM.
The same measure, in the same setting: the figure for `Cc1cc2ccccc2c(-c2ccc3c4c(ccnc24)CCO3)c1[C@H](OC(C)(C)C)C(=O)O` [Compound 161] is 4.7 µM; for `Cc1cc2cc(F)ccc2c(-c2ccc3c4c(ccnc24)CCO3)c1C(OC(C)(C)C)C(=O)O` (centres unmarked) [Compound 162] it is 1.4 µM; for `Cc1cc2c(Cl)cccc2c(-c2ccc3c4c(ccnc24)CCO3)c1C(OC(C)(C)C)C(=O)O` (centres unmarked) [Compound 163] it is 16 µM.
Turning to `Cc1cc2ccccc2c(-c2ccc(C(F)(F)F)c3cccnc23)c1[C@H](OC(C)(C)C)C(=O)O` [Compound 175], the EC50 under setting [1] is 20 µM.
Still for that read-out and setting: the same measure for `Cc1cc2ccc(C#CC(C)(C)N)cc2c(-c2ccc3c4c(ccnc24)CCO3)c1C(OC(C)(C)C)C(=O)O` (centres unmarked) [Compound 176]: 12 µM; for `Cc1cc2cc(C(F)F)ccc2c(-c2ccc3c4c(ccnc24)CCO3)c1[C@H](OC(C)(C)C)C(=O)O` [Compound 181, (S)-2-tert-butoxy-2-((R)-6-(difluoromethyl)-1-(2,3-dihydropyrano[4,3,2-de]quinolin-7-yl)-3-methylnaphthalen-2-yl)acetic acid]: 0.005 µM.
On the same count and under the same terms, the figure for `Cc1c([C@H](OC(C)(C)C)C(=O)O)c(-c2ccc3c4c(ccnc24)CCO3)c2ccccc2c1C(N)=O` [Compound 183, (S)-2-tert-butoxy-2-((R)-4-carbamoyl-1-(2,3-dihydropyrano[4,3,2-de]quinolin-7-yl)-3-methylnaphthalen-2-yl)acetic acid] is 0.351 µM.
As to `CCC(C)(C)O[C@H](C(=O)O)c1c(C)cc2ccccc2c1-c1ccc2c3c(ccnc13)CCO2` [Compound 185, (S)-2-((R)-1-(2,3-dihydropyrano[4,3,2-de]quinolin-7-yl)-3-methylnaphthalen-2-yl)-2-(tert-pentyloxy)acetic acid], the EC50 amounted to 0.024 µM.
Same read-out and setting: the figure for `Cc1cc2c(F)c(CN(C)C)ccc2c(-c2ccc3c4c(ccnc24)CCO3)c1[C@H](OC(C)(C)C)C(=O)O` [Compound 186A, (S)-2-tert-butoxy-2-((R)-1-(2,3-dihydropyrano[4,3,2-de]quinolin-7-yl)-6-((dimethylamino)methyl)-5-fluoro-3-methylnaphthalen-2-yl)acetic acid] is 1.69 µM.
The same measure, in the same setting: the same measure for `Cc1cc2c(F)c(CO)ccc2c(-c2ccc3c4c(ccnc24)CCO3)c1[C@H](OC(C)(C)C)C(=O)O` [Compound 186B, (S)-2-tert-butoxy-2-((R)-1-(2,3-dihydropyrano[4,3,2-de]quinolin-7-yl)-5-fluoro-6-(hydroxymethyl)-3-methylnaphthalen-2-yl)acetic acid]: 0.024 µM.

(Values after patent publication US9102614B2, “Naphth-2-ylacetic acid derivatives to treat AIDS” (Gilead Sciences, Inc., priority 2010, dated 2015).)
